The source of these data is patent publication US7994140B2, “Classes of compounds that interact with GPCRs” (Alchemia Limited, priority 2002, dated 2011).

The assay deals with T1, MC4 (Homo sapiens, UniProt P32245).
T1 construct: purchased Perkin Elmer BioSignal; host or cells: HEK 293
The assay is described as follows: GPCR radioligand binding (RLB) assay, melanocortin MC4, [125I]NDP-αMSH. To be noted: 4.0 Micromolar. The gist of the method: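 Competition binding against radioligand ([125I]NDP-αMSH for MC4, [125I]SST-14 for SST5) on membranes of HEK 293 cells carrying the human receptor; buffer and incubation time optimized per receptor. Filtration through 0.5% PEI-treated glass fiber, washing, then scintillation counting.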

T1 sequence (P32245 whole entry): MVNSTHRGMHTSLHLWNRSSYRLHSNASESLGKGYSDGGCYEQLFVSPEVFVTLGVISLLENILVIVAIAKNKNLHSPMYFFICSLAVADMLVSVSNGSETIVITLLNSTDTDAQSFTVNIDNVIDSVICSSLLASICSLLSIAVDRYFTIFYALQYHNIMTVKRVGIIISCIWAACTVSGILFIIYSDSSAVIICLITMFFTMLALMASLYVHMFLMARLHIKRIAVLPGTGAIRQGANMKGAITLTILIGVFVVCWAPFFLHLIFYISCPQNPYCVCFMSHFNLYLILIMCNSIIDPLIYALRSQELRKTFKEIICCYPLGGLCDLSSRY

For `N=C(N)NCC(=O)N[C@H]1C(OCc2ccccc2)O[C@H](COCc2ccccc2)[C@@H](O)[C@@H]1OCc1ccc(-c2ccccc2)cc1` (stereo partly shown) [Compound 443], for the setting “Example Library 12”, the “MC4 Inhibition at 4.0 Micromolar” value is on record as “+ (Indicates inhibition greater than . . . 50%)”.
Same read-out and setting: then `N=C(N)NCC(=O)N[C@H]1C(OCc2ccccc2)O[C@H](COCc2ccc(Cl)cc2)[C@@H](O)[C@@H]1OCc1ccc(-c2ccccc2)cc1` (stereo partly shown) [Compound 444], with “+ (Indicates inhibition greater than . . . 50%)”; and `N=C(N)NCC(=O)N[C@H]1C(OCc2ccccc2)O[C@H](COCc2ccc(Cl)cc2)[C@@H](O)[C@@H]1OCc1ccc(-c2ccccc2)cc1` (stereo partly shown) [Compound 445], with “+ (Indicates inhibition greater than . . . 50%)”; and `N=C(N)NCCC(=O)N[C@H]1C(OCc2ccccc2)O[C@H](COCc2ccc3ccccc3c2)[C@@H](O)[C@@H]1OCc1ccc(Cl)cc1` (stereo partly shown) [Compound 446], with “+ (Indicates inhibition greater than . . . 50%)”.
Take `N=C(N)NCCC(=O)N[C@H]1C(OCc2ccccc2)O[C@H](COCc2ccc3ccccc3c2)[C@@H](O)[C@@H]1OCc1ccc(Cl)cc1` (stereo partly shown) [Compound 447]: the “MC4 Inhibition at 4.0 Micromolar” value (Example Library 12) is on record as “+ (Indicates inhibition greater than . . . 50%)”.
Same read-out and setting: then `N=C(N)NCCC(=O)N[C@H]1C(OCc2ccccc2)O[C@H](COCc2ccccc2)[C@@H](O)[C@@H]1OCc1ccc(Cl)cc1` (stereo partly shown) [Compound 448], with “+ (Indicates inhibition greater than . . . 50%)”; and `N=C(N)NCCC(=O)N[C@H]1C(OCc2ccccc2)O[C@H](COCc2ccccc2)[C@@H](O)[C@@H]1OCc1ccc(Cl)cc1` (stereo partly shown) [Compound 449], with “+ (Indicates inhibition greater than . . . 50%)”.
Same read-out and setting: next, `N=C(N)NCCC(=O)N[C@H]1C(OCc2ccccc2)O[C@H](COCc2ccc(Cl)cc2)[C@@H](O)[C@@H]1OCc1ccc(Cl)cc1` (stereo partly shown) [Compound 450]: “+ (Indicates inhibition greater than . . . 50%)”; `N=C(N)NCCC(=O)N[C@H]1C(OCc2ccccc2)O[C@H](COCc2ccc(Cl)cc2)[C@@H](O)[C@@H]1OCc1ccc(Cl)cc1` (stereo partly shown) [Compound 451]: “+ (Indicates inhibition greater than . . . 50%)”.
Regarding `N=C(N)NCCC(=O)N[C@H]1C(OCc2ccccc2)O[C@H](COCc2ccc3ccccc3c2)[C@@H](O)[C@@H]1OCc1ccc2ccccc2c1` (stereo partly shown) [Compound 452], the “MC4 Inhibition at 4.0 Micromolar” value (Example Library 12) was “+ (Indicates inhibition greater than . . . 50%)”.
For `N=C(N)NCCC(=O)N[C@H]1C(OCc2ccccc2)O[C@H](COCc2ccccc2)[C@@H](O)[C@@H]1OCc1ccc2ccccc2c1` (stereo partly shown) [Compound 453], the “MC4 Inhibition at 4.0 Micromolar” value (Example Library 12) is reported as “+ (Indicates inhibition greater than . . . 50%)”.
Consider `N=C(N)NCCC(=O)N[C@H]1C(OCc2ccccc2)O[C@H](COCc2ccccc2)[C@@H](O)[C@@H]1OCc1ccc2ccccc2c1` (stereo partly shown) [Compound 454], for which the “MC4 Inhibition at 4.0 Micromolar” value (Example Library 12) is “+ (Indicates inhibition greater than . . . 50%)”.
Still for that read-out and setting: then `N=C(N)NCCC(=O)N[C@H]1C(OCc2ccccc2)O[C@H](COCc2ccc(Cl)cc2)[C@@H](O)[C@@H]1OCc1ccc2ccccc2c1` (stereo partly shown) [Compound 455], with “+ (Indicates inhibition greater than . . . 50%)”; and `N=C(N)NCCC(=O)N[C@H]1C(OCc2ccccc2)O[C@H](COCc2ccc(Cl)cc2)[C@@H](O)[C@@H]1OCc1ccc2ccccc2c1` (stereo partly shown) [Compound 456], with “+ (Indicates inhibition greater than . . . 50%)”.
On the same count and under the same terms, next, `N=C(N)NCCC(=O)N[C@H]1C(OCc2ccccc2)O[C@H](COCc2ccc3ccccc3c2)[C@@H](O)[C@@H]1OCc1ccc(-c2ccccc2)cc1` (stereo partly shown) [Compound 457]: “+ (Indicates inhibition greater than . . . 50%)”.
Still for that read-out and setting: then `N=C(N)NCCC(=O)N[C@H]1C(OCc2ccccc2)O[C@H](COCc2ccc3ccccc3c2)[C@@H](O)[C@@H]1OCc1ccc(-c2ccccc2)cc1` (stereo partly shown) [Compound 458], with “+ (Indicates inhibition greater than . . . 50%)”; and `N=C(N)NCCC(=O)N[C@H]1C(OCc2ccccc2)O[C@H](COCc2ccccc2)[C@@H](O)[C@@H]1OCc1ccc(-c2ccccc2)cc1` (stereo partly shown) [Compound 459], with “+ (Indicates inhibition greater than . . . 50%)”.
For `N=C(N)NCCC(=O)N[C@H]1C(OCc2ccccc2)O[C@H](COCc2ccc(Cl)cc2)[C@@H](O)[C@@H]1OCc1ccc(-c2ccccc2)cc1` (stereo partly shown) [Compound 460], for the setting “Example Library 12”, the “MC4 Inhibition at 4.0 Micromolar” value is given as “+ (Indicates inhibition greater than . . . 50%)”.
Regarding `N=C(N)NCCC(=O)N[C@H]1C(OCc2ccccc2)O[C@H](COCc2ccc(Cl)cc2)[C@@H](O)[C@@H]1OCc1ccc(-c2ccccc2)cc1` (stereo partly shown) [Compound 461], the “MC4 Inhibition at 4.0 Micromolar” value (Example Library 12) is “+ (Indicates inhibition greater than . . . 50%)”.
Still for that read-out and setting: next, `N=C(N)NCCC(=O)N[C@H]1C(OCc2ccccc2)O[C@H](COCCc2ccccc2)[C@@H](O)[C@@H]1OCc1ccc(-c2ccccc2)cc1` (stereo partly shown) [Compound 462]: “+ (Indicates inhibition greater than . . . 50%)”.
In the case of `N=C(N)NCC(=O)N[C@H]1C(OCc2ccc(-c3ccccc3)cc2)O[C@H](COCc2ccc3ccccc3c2)[C@@H](O)[C@H]1OCc1ccc(Cl)cc1` (stereo partly shown) [Compound 463], the “MC4 Inhibition at 4.0 Micromolar” value (Example Library 13) was “+ (Indicates inhibition greater than . . . 50%)”.
Still for that read-out and setting: next, `N=C(N)NCC(=O)N[C@H]1C(OCc2ccc(-c3ccccc3)cc2)O[C@H](COCc2ccccc2)[C@@H](O)[C@H]1OCc1ccc(Cl)cc1` (stereo partly shown) [Compound 464]: “+ (Indicates inhibition greater than . . . 50%)”.
The same measure, in the same setting: then `N=C(N)NCC(=O)N[C@H]1C(OCc2ccc(-c3ccccc3)cc2)O[C@H](COCc2ccc(Cl)cc2)[C@@H](O)[C@H]1OCc1ccc(Cl)cc1` (stereo partly shown) [Compound 465], with “+ (Indicates inhibition greater than . . . 50%)”; and `N=C(N)NCC(=O)N[C@H]1C(OCc2ccc(-c3ccccc3)cc2)O[C@H](COCc2ccccc2)[C@@H](O)[C@H]1OCc1ccc2ccccc2c1` (stereo partly shown) [Compound 466], with “+ (Indicates inhibition greater than . . . 50%)”; and `N=C(N)NCC(=O)N[C@H]1C(OCc2ccc(-c3ccccc3)cc2)O[C@H](COCc2ccc(Cl)cc2)[C@@H](O)[C@H]1OCc1ccc2ccccc2c1` (stereo partly shown) [Compound 467], with “+ (Indicates inhibition greater than . . . 50%)”.
On the same count and under the same terms, then `N=C(N)NCC(=O)N[C@H]1C(OCc2ccc(-c3ccccc3)cc2)O[C@H](COCc2ccccc2)[C@@H](O)[C@H]1OCc1ccc(-c2ccccc2)cc1` (stereo partly shown) [Compound 468], with “+ (Indicates inhibition greater than . . . 50%)”.
As to `N=C(N)NCC(=O)N[C@H]1C(OCc2ccc(-c3ccccc3)cc2)O[C@H](COCc2ccc(Cl)cc2)[C@@H](O)[C@H]1OCc1ccc(-c2ccccc2)cc1` (stereo partly shown) [Compound 469], the “MC4 Inhibition at 4.0 Micromolar” value (Example Library 13) is “+ (Indicates inhibition greater than . . . 50%)”.
Turning to `N=C(N)NCCC(=O)N[C@H]1C(OCc2ccc(-c3ccccc3)cc2)O[C@H](COCc2ccc3ccccc3c2)[C@@H](O)[C@H]1OCc1ccc(Cl)cc1` (stereo partly shown) [Compound 470], under “Example Library 13”, the “MC4 Inhibition at 4.0 Micromolar” value is listed as “+ (Indicates inhibition greater than . . . 50%)”.
The same measure, in the same setting: then `N=C(N)NCCC(=O)N[C@H]1C(OCc2ccc(-c3ccccc3)cc2)O[C@H](COCc2ccccc2)[C@@H](O)[C@H]1OCc1ccc(Cl)cc1` (stereo partly shown) [Compound 471], with “+ (Indicates inhibition greater than . . . 50%)”; and `N=C(N)NCCC(=O)N[C@H]1C(OCc2ccc(-c3ccccc3)cc2)O[C@H](COCc2ccc(Cl)cc2)[C@@H](O)[C@H]1OCc1ccc(Cl)cc1` (stereo partly shown) [Compound 472], with “+ (Indicates inhibition greater than . . . 50%)”.
On the same count and under the same terms, then `N=C(N)NCCC(=O)N[C@H]1C(OCc2ccc(-c3ccccc3)cc2)O[C@H](COCc2ccc3ccccc3c2)[C@@H](O)[C@H]1OCc1ccc2ccccc2c1` (stereo partly shown) [Compound 473], with “+ (Indicates inhibition greater than . . . 50%)”.
Same read-out and setting: next, `N=C(N)NCCC(=O)N[C@H]1C(OCc2ccc(-c3ccccc3)cc2)O[C@H](COCc2ccccc2)[C@@H](O)[C@H]1OCc1ccc2ccccc2c1` (stereo partly shown) [Compound 474]: “+ (Indicates inhibition greater than . . . 50%)”; `N=C(N)NCCC(=O)N[C@H]1C(OCc2ccc(-c3ccccc3)cc2)O[C@H](COCc2ccc(Cl)cc2)[C@@H](O)[C@H]1OCc1ccc2ccccc2c1` (stereo partly shown) [Compound 475]: “+ (Indicates inhibition greater than . . . 50%)”.
Take `N=C(N)NCCC(=O)N[C@H]1C(OCc2ccc(-c3ccccc3)cc2)O[C@H](COCc2ccc3ccccc3c2)[C@@H](O)[C@H]1OCc1ccc(-c2ccccc2)cc1` (stereo partly shown) [Compound 476]: where the note is “Example Library 13”, the “MC4 Inhibition at 4.0 Micromolar” value is on record as “+ (Indicates inhibition greater than . . . 50%)”.
As to `N=C(N)NCCC(=O)N[C@H]1C(OCc2ccc(-c3ccccc3)cc2)O[C@H](COCc2ccccc2)[C@@H](O)[C@H]1OCc1ccc(-c2ccccc2)cc1` (stereo partly shown) [Compound 477], the “MC4 Inhibition at 4.0 Micromolar” value (Example Library 13) is on record as “+ (Indicates inhibition greater than . . . 50%)”.
Still for that read-out and setting: then `N=C(N)NCCC(=O)N[C@H]1C(OCc2ccc(-c3ccccc3)cc2)O[C@H](COCc2ccc(Cl)cc2)[C@@H](O)[C@H]1OCc1ccc(-c2ccccc2)cc1` (stereo partly shown) [Compound 478], with “+ (Indicates inhibition greater than . . . 50%)”; and `N=C(N)NCC(=O)N[C@H]1C(OCc2ccc(Cl)cc2)O[C@H](COCc2ccc3ccccc3c2)[C@@H](O)[C@H]1OCc1ccc(Cl)cc1` (stereo partly shown) [Compound 479], with “+ (Indicates inhibition greater than . . . 50%)”.
On the same count and under the same terms, next, `N=C(N)NCC(=O)N[C@H]1C(OCc2ccc(Cl)cc2)O[C@H](COCc2ccccc2)[C@@H](O)[C@H]1OCc1ccc(Cl)cc1` (stereo partly shown) [Compound 480]: “+ (Indicates inhibition greater than . . . 50%)”.
On to `N=C(N)NCC(=O)NC1C(OCc2ccc(Cl)cc2)OC(COCc2ccc(Cl)cc2)C(O)C1OCc1ccc(Cl)cc1` (stereo not shown) [Compound 481], for which the “MC4 Inhibition at 4.0 Micromolar” value (Example Library 13) is listed as “+ (Indicates inhibition greater than . . . 50%)”.
As to `N=C(N)NCC(=O)NC1C(OCc2ccc(Cl)cc2)OC(COCc2ccc3ccccc3c2)C(O)C1OCc1ccc2ccccc2c1` (stereo not shown) [Compound 482], the “MC4 Inhibition at 4.0 Micromolar” value (Example Library 13) is “+ (Indicates inhibition greater than . . . 50%)”.
